Measured values published in US6576271B2, “Method for inhibiting inflammation using bioflavonoids” (Board of Trustees operating Michigan State University, priority 1998, dated 2003).
Where two headings read alike, the source gives them in different places. One block for each compound: values may come before it.

Legend:
PGHS-1 (COX-1) = target: T1, PGHS-1 (COX-1) (Ovis aries, UniProt P05979); assay: COX-1 inhibition by flavonoids and isoflavonoids, O2 uptake (Example 5); type: biochemical; details: for PGHS-1 (COX-1) inhibition: at 1000 μM concentrations; for COX-1 inhibitory activity: FIG. 9, 200 μm concentrations; for COX-1 inhibitory activity among isoflavonoids: COX-1/COX-2 stated together
T1 construct: purchased Oxford Biomedical Research (Oxford, Mich., USA)
T1 sequence (P05979 25-600): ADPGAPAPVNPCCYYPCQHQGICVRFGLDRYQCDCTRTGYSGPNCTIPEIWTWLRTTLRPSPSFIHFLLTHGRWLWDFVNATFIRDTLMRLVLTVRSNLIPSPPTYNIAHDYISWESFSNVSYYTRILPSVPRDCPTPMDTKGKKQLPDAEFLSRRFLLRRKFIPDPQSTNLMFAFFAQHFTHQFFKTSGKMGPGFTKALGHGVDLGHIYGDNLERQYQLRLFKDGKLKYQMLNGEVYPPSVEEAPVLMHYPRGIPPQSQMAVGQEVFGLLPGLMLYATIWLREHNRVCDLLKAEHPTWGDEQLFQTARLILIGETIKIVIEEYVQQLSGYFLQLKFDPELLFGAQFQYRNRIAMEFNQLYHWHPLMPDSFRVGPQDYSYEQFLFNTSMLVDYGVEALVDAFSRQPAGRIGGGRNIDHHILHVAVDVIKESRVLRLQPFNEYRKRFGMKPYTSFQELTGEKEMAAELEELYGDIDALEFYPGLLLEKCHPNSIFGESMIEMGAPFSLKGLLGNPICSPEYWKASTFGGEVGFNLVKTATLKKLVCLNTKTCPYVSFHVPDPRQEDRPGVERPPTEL
From the text: (§1) This is an antiinflammatory assay for cyclooxygenase inhibition activity of flavonoids and isoflavonoids. Arachidonic acid and microsomal suspensions of PGHS-1 (COX-1) and COX-2 (PGHS-2) were purchased from Oxford Biomedical Research (Oxford, Mich., USA). Genistein, genistin, naringenin, quercetin, 5,8,4′-trihydroxy-6,7-dimethoxyflavone, kaempferol-3-rutinoside and 3′-methoxy kaempferol 3-rutinoside were purified from BALATON tart cherry by HPLC and were identified by ^1H- and ^13C NMR spectral data. Daidzein and formononetin were purchased from Research Plus, Inc. (Bayonne, N.J., USA). […] Luteolin was purchased from Adams Chemical Co. (Round Lake, Ill., USA).
For measuring the COX activity, flavonoids or isoflavonoids were dissolved in DMSO to yield 40 mM stock solution and was further diluted to the desired concentration according to the COX-1/COX-2 inhibitory activity of each compound assayed.
Anti-inflammatory assay: COX activities were measured using microsomal suspensions of PGHS-1 and PGHS-2. Microsomal membranes (5 mg protein/mL in 0.1 M Tris HCl, pH 7.4) were prepared and assayed on the same day. COX-1 and COX-2 assay was performed at 37° C. controlled by a circulation bath (Model-1166, VWR Scientific Products, Chicago, Ill.) by monitoring the rate of O2 uptake using a 5357 Oxygen electrode (INSTECH Laboratory, Plymouth Meeting, Pa.) (Meade, E. A., et al., J. Biol. Chem. 268 6610-6614 (1993)).
Each assay mixture contained 600 μL of 0.1 M Tris-HCl, pH 8.0, 1 mM phenol, 17 μg hemoglobin and 10 μM arachidonate and were mixed in a microchamber (INSTECH Laboratory, Plymouth Meeting, Pa., USA). […] Reactions were initiated by adding […] of microsomal protein (5 μL). Instantaneous inhibition was determined by measuring the cyclooxygenase activity initiated by adding microsomal suspensions of PGHS-1 or PGHS-2 in the assay mixtures containing 10 μM arachidonate and various concentrations of test compounds. […] The kinetics of the enzyme activity was monitored by Biological Oxygen Monitor (YSI model 5300, Yellow Springs Instrument CO., Inc., Yellow Springs, Ohio) and collected in Quicklog Data Acquisition and Control computer software (Strawberry Tree Inc., Sunnyvale, Calif., USA).
The COX-1/COX-2 activity of BALATON cherry bioflavonoids was determined by monitoring the O2 uptake. Reactions were initiated by adding PGHS enzyme preparation. One unit of cyclooxygenase represents oxygenation of 1 nmol of arachidonate/min under the standard assay condition by the COX enzyme. This assay was a modification of the assay reported by DeWitt et al. (Dewitt D. L., et al., J. Biol. Chem. 265 5192-5198 (1990)). […] This methodology can also be used for COX-2 assay as well using COX-2 enzyme. […] COX-1 inhibitory activities of flavonoids, kaempferol, quercetin, luteolin, quercetin 3-rhamnoside, 5,8,4′-trihydroxy-6,7-dimethoxyflavone were compared. Kaempferol 3-rutinoside, 3′-methoxy kaempferol 3-rutinoside and naringenin (FIG. 9), and five isoflavonoids, genistein, genistin, daidzein, formononetin and biochanin A (FIG. 8).
COX-1/COX-2 inhibitory activities of each compound at different concentrations was calculated by comparing the tangent of O2 uptake curves of test compounds with that of blank control. Each assay was repeated 3 times and the IC50 values (50 inhibitory concentrations) were calculated by linear regression analysis.

PGHS-1 enzyme = target: T2, PGHS-1 enzyme (Ovis aries, UniProt P05979); assay: Cyclooxygenase activity of PGHS-1, initial rate of O2 uptake (Example 4); type: biochemical, ram
T2 construct: a microsomal fraction of ram seminal vesicles containing PGHS-1 enzyme; tissue Oxford Biomedical Research (Oxford, Mich.); host or cells: ram seminal vesicles (microsomal fraction)
T2 sequence (P05979 25-600): T1 sequence (P05979 25-600)

[1] = Tsuda et al. 1994; cited from earlier work
cyclooxygenase = details: cited from earlier work; for COX inhibition: literature reports
COX-2 (PGHS-2) = target: T3, COX-2 (PGHS-2) (Homo sapiens, UniProt P35354); assay: COX-2 inhibition by flavonoids and isoflavonoids, O2 uptake (Example 5); type: biochemical; details: COX-1/COX-2 stated together
T3 construct: purchased Oxford Biomedical Research (Oxford, Mich., USA)
T3 sequence (P35354 18-604): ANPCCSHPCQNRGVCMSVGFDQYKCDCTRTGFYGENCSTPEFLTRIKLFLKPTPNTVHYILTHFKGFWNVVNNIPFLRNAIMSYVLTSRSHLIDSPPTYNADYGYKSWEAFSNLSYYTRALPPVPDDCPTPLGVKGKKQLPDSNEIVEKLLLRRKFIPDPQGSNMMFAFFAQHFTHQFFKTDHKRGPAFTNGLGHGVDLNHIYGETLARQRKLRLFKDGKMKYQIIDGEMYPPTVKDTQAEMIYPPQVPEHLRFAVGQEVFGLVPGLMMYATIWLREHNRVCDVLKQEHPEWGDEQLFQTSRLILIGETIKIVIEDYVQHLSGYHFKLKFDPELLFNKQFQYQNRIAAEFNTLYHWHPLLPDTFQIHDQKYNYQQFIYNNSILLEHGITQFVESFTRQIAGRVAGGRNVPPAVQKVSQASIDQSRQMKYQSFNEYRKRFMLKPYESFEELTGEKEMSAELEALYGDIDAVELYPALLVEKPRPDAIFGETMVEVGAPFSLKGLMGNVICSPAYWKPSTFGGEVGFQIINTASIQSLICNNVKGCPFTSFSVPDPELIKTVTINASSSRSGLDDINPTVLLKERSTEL
From the text: as §1, with “Ill., USA). […]” for “Ill., USA).”
Anti-inflammatory assay: COX activities were measured using microsomal suspensions of PGHS-1 and PGHS-2. […]
Each assay mixture contained 600 μL of 0.1 M Tris-HCl, pH 8.0, 1 mM phenol, 17 μg hemoglobin and 10 μM arachidonate and were mixed in a microchamber (INSTECH Laboratory, Plymouth Meeting, Pa., USA). […] Instantaneous inhibition was determined by measuring the cyclooxygenase activity initiated by adding microsomal suspensions of PGHS-1 or PGHS-2 in the assay mixtures containing 10 μM arachidonate and various concentrations of test compounds. […]
The COX-1/COX-2 activity of BALATON cherry bioflavonoids was determined by monitoring the O2 uptake. […]

[2] = Sanchez De Medina et al. 1996; cited from earlier work
[3] = mean of triplicate, FIGS. 10 and 11, read-out: IC50 for inhibition of PGHS-1 enzyme (COX-1)

PGHS-1 (COX-1) inhibition (PGHS-1 (COX-1)): not active
SMILES: COc1cc(-c2oc3cc(O)cc(O)c3c(=O)c2O[C@@H]2O[C@H](CO[C@@H]3O[C@@H](C)[C@H](O)[C@@H](O)[C@H]3O)[C@@H](O)[C@H](O)[C@H]2O)ccc1O [3′-methoxy kaempferol 3-rutinoside]

COX-1 inhibitory activity (PGHS-1 (COX-1)): little or no COX-1 inhibition | PGHS-1 (COX-1) inhibition (PGHS-1 (COX-1)): not active
SMILES: COc1c(OC)c(O)c2c(=O)cc(-c3ccc(O)cc3)oc2c1O [5,8,4′-trihydroxy-6,7-dimethoxyflavone]

PGHS-1 (COX-1) inhibition (PGHS-1 (COX-1)): not active
SMILES: C[C@H]1O[C@H](OC[C@H]2O[C@@H](Oc3c(-c4ccc(O)cc4)oc4cc(O)cc(O)c4c3=O)[C@H](O)[C@@H](O)[C@@H]2O)[C@@H](O)[C@@H](O)[C@@H]1O [Kaempferol 3-rutinoside]

IC50 (PGHS-1 (COX-1); [3]): 350 µM
SMILES: COc1ccc(-c2coc3cc(O)cc(O)c3c2=O)cc1 [biochanin A]

IC50 (PGHS-1 (COX-1)): 80 µM | COX-1 inhibitory activity among isoflavonoids (PGHS-1 (COX-1)): highest COX-1/COX-2 inhibitory activity | COX-2 inhibitory activity among isoflavonoids (COX-2 (PGHS-2)): highest COX-1/COX-2 inhibitory activity
SMILES: O=c1c(-c2ccc(O)cc2)coc2cc(O)cc(O)c12 [genistein]

COX-1 inhibitory activity among isoflavonoids (PGHS-1 (COX-1)): dramatically decreased | COX-2 inhibitory activity among isoflavonoids (COX-2 (PGHS-2)): dramatically decreased
SMILES: O=c1c(-c2ccc(O)cc2)coc2cc(O[C@@H]3O[C@H](CO)[C@@H](O)[C@H](O)[C@H]3O)cc(O)c12 [genistin]

COX-1 inhibitory activity (PGHS-1 (COX-1)): highest COX-1 inhibition | IC50 (PGHS-1 (COX-1); [3]): 180 µM
SMILES: O=c1c(O)c(-c2ccc(O)cc2)oc2cc(O)cc(O)c12 [kaempferol]

IC50 (PGHS-1 (COX-1); [3]): 300 µM
SMILES: O=c1cc(-c2ccc(O)c(O)c2)oc2cc(O)cc(O)c12 [luteolin]

COX-1 inhibitory activity (PGHS-1 (COX-1)): dramatically decreased
SMILES: O=C1C[C@@H](c2ccc(O)cc2)Oc2cc(O)cc(O)c21 [naringenin]

The next lines start with the compound.

SMILES: C[C@@H]1O[C@@H](OC[C@H]2O[C@@H](Oc3cc4c(O)cc(O)cc4[o+]c3-c3ccc(O)c(O)c3)[C@H](O[C@@H]3O[C@H](CO)[C@@H](O)[C@H](O)[C@H]3O)[C@@H](O)[C@@H]2O)[C@H](O)[C@H](O)[C@H]1O [anthocyanin 1]
effect on activity of enzyme at higher concentrations (PGHS-1 enzyme; higher concentrations than 300-nM, enzyme (PGHS-1/PGHS-2) not specified): increased the activity of enzyme

SMILES: OC[C@H]1O[C@@H](Oc2cc3c(O)cc(O)cc3[o+]c2-c2ccc(O)c(O)c2)[C@H](O)[C@@H](O)[C@@H]1O [cyanidin-3-glucoside]
antioxidant activities [1]: strong antioxidant activities

SMILES: Oc1cc(O)c2cc(O)c(-c3ccc(O)c(O)c3)[o+]c2c1 [cyanidin]
IC50 (PGHS-1 enzyme; inhibition of cyclooxygenase activity, FIG. 7): 90 µM

SMILES: O=c1c(-c2ccc(O)cc2)coc2cc(O)ccc12 [daidzein]
IC50 (PGHS-1 (COX-1)): 400 µM

SMILES: O=c1c(O)c(-c2ccccc2)oc2cc(O)cc(O)c12 [galangin]
IC50 (cyclooxygenase; Wurm et al. 1982, read-out: IC50 cyclooxygenase inhibition): 5.5 µM

SMILES: CC(C)=CCc1c(-c2ccc(O)cc2O)oc2c3c(cc(O)c2c1=O)OC(C)(C)C=C3 [morusin]
COX inhibition (cyclooxygenase): active

SMILES: C[C@@H]1O[C@@H](Oc2c(-c3ccc(O)c(O)c3)oc3cc(O)cc(O)c3c2=O)[C@H](O)[C@H](O)[C@H]1O [quercetin 3-rhamnoside]
in vivo anti-inflammatory activity [2]: reported to have in vivo anti-inflammatory activity | COX-1 inhibitory activity (PGHS-1 (COX-1)): not active

SMILES: O=c1c(O)c(-c2ccc(O)c(O)c2)oc2cc(O)cc(O)c12 [quercetin]
PGHS-1 (COX-1) inhibition (PGHS-1 (COX-1)): not active | IC50 (PGHS-1 (COX-1); [3]): 350 µM

SMILES: O=c1cc(-c2ccccc2)oc2ccccc12 [unsubstituted flavone, flavone]
COX inhibition (cyclooxygenase): good COX inhibitor
